The target in one assay is T1, human PFKP (Homo sapiens, UniProt Q01813).
T1 construct: made in house; host or cells: Sf9 insect cells (baculovirus)
Put plainly: Recombinant PFKP activity assay. The note with it: at concentrations up to 100 μM. In kind it is biochemical. The source says: Recombinant N-terminal His-tagged human PFKL (NP_002617), PFKM (NP_000280), and PFKP (NM_002627.4) were generated as described ([Webb et al., 2015], [2017]). Point mutants of PFK1 were generated using the QuikChange Lightning kit (Aligent).
His-tagged PFK1 was expressed and purified as described with slight modifications ([Webb et al., 2015], [2017]). Briefly, baculovirus was generated using the Bac-to-Bac Expression system (Invitrogen). PFK1 was expressed in 2-5 × 10^6 sf9 cells at a multiplicity of infection of two for 48 h. […] Protein was quantified using a Bradford Protein Assay kit (ThermoFisher Scientific), and aliquotes frozen in liquid nitrogen for storage at −80°C.
PFK1 activity was determined using the rate of FBP production via an auxiliary enzyme assay adapted to a 96-well format ([Brüser et al., 2012]; [Webb et al., 2015]). […] For assays containing FBP, the rate of ADP production was determined using the auxiliary enzymes pyruvate kinase (PK) and lactate dehydrogenase (LDH) (MilliporeSigma) in a buffer containing 250 μM phosphoenolpyruvic acid, […] NADH, 50 mM HEPES pH 7.5, 100 mM KCl, 1 mM DTT, and effector concentrations as described in the text. […] Absorbance at 340 nm was measured using a Varioskan LUX Multimode microplate reader (ThermoFisher). […]

The test system of a further assay is PMNs. The assay can be described thus: ROS detection assay (ROS-Glo) in neutrophils. The note with it: for PMA-induced ROS production: 50 nM PMA. Type of assay: cell-based, human. The method, then:
ROS were measured using the ROS-Glo bioluminescent assay (Promega) for the direct detection of H2O2. Briefly, neutrophils (2 × 10^4) were plated in white 96-well plates (Greiner) in high glucose DMEM medium. Cells were cultured with DMSO vehicle, 0.5 μM NA-11, 5 μM LDC7559, 100 μM apocynin, or 200 μM thionicotinamide for 30 min, and then stimulated with 50 nM PMA or treated with 10 μg/mL zymosan beads, pre-opsonized in 20% serum for 30 min. Luminescence, after the addition of H2O2 substrate solution of 20 min, and then ROS-Glo detection solution for 20 min, was recorded on a plate reader (Envision).

For a further assay, the system named is PFK1. The assay can be described thus: PFK1 activity in PMN lysates. In kind it is cell-based, human. The note with it: for activation-induced reduction in PFK1 activity: neutrophils treated with PMA, LPS, or cholesterol crystals. On the procedure: PFK1 activity assays from neutrophil lysates were modified from Abrantes et al., 2012. Briefly, neutrophils (10^7) were cultured with 0.5 μM NA-11 for 30 min, and then stimulated with 50 nM PMA, 5 μg/mL cholesterol crystals, 10 μg/mL LPS or 25 μM nigericin for 30 min. Cells were lysed in 10 mM PBS, 1% Triton X-100, and 1 x EDTA-free protease inhibitor cocktail on ice for 10 min. The soluble protein lysates were quantified by BCA assay (Pierce) and adjusted to 0.3125 mg/mL with lysis buffer. Lysate (80 μL) was mixed with 100 μL 2x enzyme cocktail solution (100 mM Tris-HCL pH7.4, 10 mM MgCl2, 0.5 mM ATP, 0.3 mM NADH, 1.35 units/mL Aldolase, 10 units/mL Triose phosphate isomerase, 4 units/mL glycerophosphate dehydrogenase, 20 mM ammonium sulfate) equilibrated to reach room temperature for 5 min. 20 μL of Fructose-6-phosphate (40 mM) was added and the reaction monitored for NADH decrease (absorbance at 340 nm) every 30 s for 30 min. Specific activity is in pmoles FBP per min per mg lysate.

Entries after “also recorded” stand apart in the source; their conditions may differ.

T1 sequence (Q01813 whole entry): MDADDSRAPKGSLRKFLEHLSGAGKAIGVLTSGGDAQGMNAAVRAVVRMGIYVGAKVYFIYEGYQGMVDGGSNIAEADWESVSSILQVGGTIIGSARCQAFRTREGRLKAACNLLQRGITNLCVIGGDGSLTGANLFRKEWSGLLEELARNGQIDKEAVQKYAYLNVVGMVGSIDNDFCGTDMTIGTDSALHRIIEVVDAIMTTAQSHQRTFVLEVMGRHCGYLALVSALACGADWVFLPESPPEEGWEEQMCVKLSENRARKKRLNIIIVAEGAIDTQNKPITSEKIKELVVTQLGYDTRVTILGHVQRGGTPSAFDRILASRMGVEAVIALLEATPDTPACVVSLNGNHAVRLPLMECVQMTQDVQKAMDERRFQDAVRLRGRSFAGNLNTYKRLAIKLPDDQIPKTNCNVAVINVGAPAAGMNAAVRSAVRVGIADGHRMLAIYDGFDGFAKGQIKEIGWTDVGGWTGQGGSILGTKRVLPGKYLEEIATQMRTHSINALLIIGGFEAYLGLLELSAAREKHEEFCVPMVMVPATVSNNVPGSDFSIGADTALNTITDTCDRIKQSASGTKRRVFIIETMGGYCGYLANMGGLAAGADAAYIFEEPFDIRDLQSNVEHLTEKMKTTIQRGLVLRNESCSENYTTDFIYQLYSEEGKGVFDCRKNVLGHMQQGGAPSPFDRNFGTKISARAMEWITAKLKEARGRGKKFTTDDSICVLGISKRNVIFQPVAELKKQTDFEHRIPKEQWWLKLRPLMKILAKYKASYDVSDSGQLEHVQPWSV

Turning to `COc1ccccc1-c1cc2n(n1)Cc1ccc(NC(C)=O)cc1OC2` [LDC7559, reference compound], the “activation of PFKP” value at human PFKP is “failed to activate”. Further, the “PMA-induced ROS production” value with PMNs is “inhibited PMA-induced ROS production”. In addition, in the assay with PFK1, the “activation-induced reduction in PFK1 activity” value is reported as “prevented”.
For the molecule `CC(=O)Nc1ccc2c(c1)OCc1cc(-c3ccccc3C#CCCCO)nn1C2` [NA-11], the “activation of PFKP” value on human PFKP is “failed to activate”. In the assay on PMNs, the “PMA-induced ROS production” value is recorded as “inhibited PMA-induced ROS production; also recorded: markedly suppressed, but did not completely prevent, PMA-induced ROS”. In addition, the “ROS production during phagocytosis of opsonized zymosan” value in the assay on PMNs (over 2 h) is given as “kept ROS production at basal levels”. Further, the “activation-induced reduction in PFK1 activity” value in the assay on PFK1 is “prevented”. In addition, the “effect on PFK1 activity in resting neutrophils” value with PFK1 (resting neutrophils) is “minimal”.
